This note sets out measurements from ChEMBL document CHEMBL1821558, “Toward potent α-glucosidase inhibitors based on xanthones: a closer look into the structure-activity correlations” (Eur J Med Chem, 2011).

What is called IC50 is the concentration that gives 50% inhibition. The low end stands for greater potency, the high end for weaker potency. One may read the Ki as the equilibrium dissociation constant of an inhibitor or competing ligand from its target. Low values mean a stronger hold on the target, high ones a looser hold on the target.

Active and inactive are the calls of the source. No cut-off for these calls is given here. Some results are limits rather than exact numbers.

Assay [1] in a line: Inhibition of yeast alpha-glucosidase using PNP glycoside as substrate after 30 mins by spectrophotometry. Further details: species or system Saccharomyces cerevisiae.
Assay [2] concerns Saccharomyces cerevisiae. Kind of assay: Ratio of 1,3-dihydroxy-9H-xanthen-9-one IC50 to compound IC50 for yeast alpha-glucosidase.
Assay [3] relates to Saccharomyces cerevisiae. Kind of assay: Ratio of 1,3,6-trihydroxy-9H-xanthen-9-one IC50 to compound IC50 for yeast alpha-glucosidase.
Assay [4] can be described thus: Non competitive inhibition of yeast alpha-glucosidase using PNP glycoside as substrate preincubated for 30 mins by Lineweaver-Burk plot analysis. Details: species or system Saccharomyces cerevisiae.
The subject of assay [5] is Saccharomyces cerevisiae. Kind of assay: Non competitive inhibition of yeast alpha-glucosidase using PNP glycoside as substrate at 34.8 uM preincubated for 30 mins by Lineweaver-Burk plot analysis.
Assay [6] relates to Saccharomyces cerevisiae. Kind of assay: Non competitive inhibition of yeast alpha-glucosidase using PNP glycoside as substrate at 15.3 uM preincubated for 30 mins by Lineweaver-Burk plot analysis.
Assay [7] concerns Saccharomyces cerevisiae. Put plainly: Ratio of 1,3,6,8-tetrahydroxy-9H-xanthen-9-one IC50 to compound IC50 for yeast alpha-glucosidase.
Assay [8] has as its system Saccharomyces cerevisiae. Put plainly: Non competitive inhibition of yeast alpha-glucosidase using PNP glycoside as substrate at 25.4 uM preincubated for 30 mins by Lineweaver-Burk plot analysis.
The subject of assay [9] is Saccharomyces cerevisiae. Put plainly: Ratio of 1,3-dihydroxy-7-methyl-9H-xanthen-9-one IC50 to compound IC50 for yeast alpha-glucosidase.

On to `Cc1ccc2oc3cc(O)cc(O)c3c(=O)c2c1`, for which, in [1], the IC50 is over 200 µM. As to `O=c1c2ccccc2oc2cc(O)c(-c3c(O)ccc4ccccc34)c(O)c12`, 47.7 µM corresponded to half-maximal inhibition in [1] (IC50). For the same compound, in the assay on Saccharomyces cerevisiae [2], the Ratio IC50 amounted to 2.

`O=c1c2ccccc2oc2cc(O)cc(O)c12` registered an IC50 in assay [1] of 161 µM. In assay [1], `O=c1c2ccc(O)cc2oc2cc(O)c(-c3c(O)ccc4ccccc34)c(O)c12` returned an IC50 of 10.5 µM. Further, the Ratio IC50 in the assay with Saccharomyces cerevisiae [3] was 2. `O=c1c2ccccc2oc2cc(O)c(-c3c(O)ccc4ccc(O)cc34)c(O)c12` yielded an IC50 in [1] of 75.4 µM. In other words, the double-digit micromolar range. `O=c1c2c(O)cc(O)cc2oc2cc(O)cc(O)c12` showed an IC50 in [1] of 17.2 µM. In assay [4], this compound showed an inhibitory constant (Ki) of 62.8 µM. The inhibition entry in the assay on Saccharomyces cerevisiae [5] was “Active”. The compound `O=c1c2ccc(O)cc2oc2c(-c3c(O)ccc4ccccc34)c(O)c(-c3c(O)ccc4ccccc34)c(O)c12` had an IC50 in assay [1] of 6.2 µM. Same read-out and setting: the figure for `Cc1ccc2oc3c(-c4c(O)ccc5ccccc45)c(O)c(-c4c(O)ccc5ccccc45)c(O)c3c(=O)c2c1` is 6.4 µM. `O=c1c2c(O)cc(O)cc2oc2cc(O)c(-c3c(O)ccc4ccccc34)c(O)c12` displayed an IC50 in assay [1] of 8.1 µM. The compound further had a Ki in [4] of 29.2 µM. For the same compound, the inhibition entry with Saccharomyces cerevisiae [6] is “Active”. The Ratio IC50 with Saccharomyces cerevisiae [7] worked out at 2. In [1], `Cc1ccc2oc3cc(O)c(-c4c(O)ccc5ccc(O)cc45)c(O)c3c(=O)c2c1` came in with an IC50 of 112 µM. With `O=c1c2ccc(O)cc2oc2cc(O)c(-c3c(O)ccc4ccc(O)cc34)c(O)c12`, in assay [1], the IC50 is 47.6 µM. With `O=c1c2c(O)cc(O)cc2oc2cc(O)c(-c3c(O)ccc4ccc(O)cc34)c(O)c12`, in [1], it took 17.4 µM to reach half-maximal inhibition (IC50). Moreover, affinity in assay [4] was put at a Ki of 50.9 µM. In addition, the inhibition result in the assay with Saccharomyces cerevisiae [8] is “Active”. As to `O=c1c2ccc(O)cc2oc2cc(O)cc(O)c12`, inhibition in assay [1] was half-maximal at 41.5 µM (IC50). Still for that read-out and setting: the figure for `O=c1c2ccccc2oc2c(-c3c(O)ccc4ccccc34)c(O)c(-c3c(O)ccc4ccccc34)c(O)c12` is 10.1 µM. `Cc1ccc2oc3cc(O)c(-c4c(O)ccc5ccccc45)c(O)c3c(=O)c2c1` showed an IC50 in assay [1] of 26.5 µM. The Ratio IC50 in the assay on Saccharomyces cerevisiae [9] turned out to be 2. Compound `OC[C@H]1NC[C@H](O)[C@@H](O)[C@@H]1O` [DUVOGLUSTAT] registered an IC50 in assay [1] of 40 µM.
